From publication PMC9732253, “Inhibition of the Phosphatidylinositol-3 Kinase Pathway Using Bimiralisib in Loss-of-Function NOTCH1-Mutant Head and Neck Cancer” (The Oncologist, 2022)

Protocol: All patients received 140 mg bimiralisib (PQR309) orally once daily on 2 consecutive days followed by 5 days without treatment weekly until unacceptable toxicity, tumor progression, patient request for withdrawal, investigator judgment, or death.
Radiologic tumor assessments were performed using computed tomography at baseline and every 6 weeks. Safety was continuously monitored.

## Nc1cc(C(F)(F)F)c(-c2nc(N3CCOCC3)nc(N3CCOCC3)n2)cn1 [Bimiralisib, 5-(4,6-dimorpholino-1,3,5-triazin-2-yl)-4-(trifluoromethyl)pyridin-2-amine]
7 patients of 8
  Patients with AEs (any severity) suspected to be related to treatment: 87.5%
8 patients
  AE leading to dose reduction: No patients
8 patients, 140 mg orally 2 consecutive days weekly
  Tolerability: well tolerated
Any grade, 2 patients of 8
  Aspiration pneumonia, AEs irrespective of causality: 25.0%
  Confusional state, AEs irrespective of causality: 25.0%
  Rash, AEs irrespective of causality: 25.0%
  Vomiting, AEs irrespective of causality: 25.0%
Any grade, 3 patients of 8
  Fatigue, AEs irrespective of causality: 37.5%
  Hyperglycemia, AEs irrespective of causality: 37.5%
  Nausea, AEs irrespective of causality: 37.5%
Both events unrelated to treatment
  Patients who died during the study: Two
Both hyperglycemia
  SAEs related to treatment with bimiralisib: Two
Five patients of 8
  Patients with severe AEs (SAEs, CTCAE grade ≥3): 62.5%
human, in vivo
  Infections and infestations, Grade 1, patients: 0 n (%)
  Infections and infestations, Grade 1, total number of events: 0
  Infections and infestations, Grade 2, patients: 2 (25.0) n (%)
  Infections and infestations, Grade 2, total number of events: 3
  Infections and infestations, Grade 3/4, total number of events: 3
  Sepsis, Grade 1, patients: 0 n (%)
  Sepsis, Grade 1, total number of events: 0
  Sepsis, Grade 2, patients: 0 n (%)
  Sepsis, Grade 2, total number of events: 0
  Sepsis, Grade 3/4, patients: 1 (12.5) n (%)
  Skin infection, AEs irrespective of causality: 25%
  Skin infection, Grade 1, patients: 0 n (%)
  Skin infection, Grade 1, total number of events: 0
  Skin infection, Grade 2, patients: 1 (12.5) n (%)
  Skin infection, Grade 2, total number of events: 1
  Skin infection, Grade 3/4, patients: 1 (12.5) n (%)
  Wound infection, Grade 1, patients: 0 n (%)
  Wound infection, Grade 1, total number of events: 0
  Wound infection, Grade 2, patients: 1 (12.5) n (%)
  Wound infection, Grade 2, total number of events: 1
  Wound infection, Grade 3/4, patients: 0 n (%)
In 7 patients
  Number of AEs (any severity) suspected to be related to treatment: 23
N = 8
  Acute respiratory distress syndrome, Grade 1, patients: 0 n (%)
  Acute respiratory distress syndrome, Grade 1, total number of events: 0
  Acute respiratory distress syndrome, Grade 2, patients: 0 n (%)
  Acute respiratory distress syndrome, Grade 2, total number of events: 0
  Acute respiratory distress syndrome, Grade 3/4, patients: 1 (12.5) n (%)
  Acute respiratory distress syndrome, Grade 3/4, total number of events: 1
  Alanine aminotransferase increased, Grade 1, patients: 0 n (%)
  Alanine aminotransferase increased, Grade 1, total number of events: 0
  Alanine aminotransferase increased, Grade 2, patients: 0 n (%)
  Alanine aminotransferase increased, Grade 2, total number of events: 0
  Alanine aminotransferase increased, Grade 3/4, patients: 1 (12.5) n (%)
  Alanine aminotransferase increased, Grade 3/4, total number of events: 1
  Anemia, Grade 1, patients: 0 n (%)
  Anemia, Grade 1, total number of events: 0
  Anemia, Grade 2, patients: 0 n (%)
  Anemia, Grade 2, total number of events: 0
  Anemia, Grade 3/4, patients: 1 (12.5) n (%)
  Anemia, Grade 3/4, total number of events: 1
  Any adverse event, Grade 1, patients: 8 (100.0) n (%)
  Any adverse event, Grade 1, total number of events: 29
  Any adverse event, Grade 2, patients: 3 (37.5) n (%)
  Any adverse event, Grade 2, total number of events: 13
  Any adverse event, Grade 3/4, patients: 5 (62.5) n (%)
  Any adverse event, Grade 3/4, total number of events: 15
  Aspartate aminotransferase increased, Grade 1, patients: 0 n (%)
  Aspartate aminotransferase increased, Grade 1, total number of events: 0
  Aspartate aminotransferase increased, Grade 2, patients: 0 n (%)
  Aspartate aminotransferase increased, Grade 2, total number of events: 0
  Aspartate aminotransferase increased, Grade 3/4, patients: 1 (12.5) n (%)
  Aspartate aminotransferase increased, Grade 3/4, total number of events: 1
  Asthenia, Grade 1, patients: 1 (12.5) n (%)
  Asthenia, Grade 1, total number of events: 1
  Asthenia, Grade 2, patients: 0 n (%)
  Asthenia, Grade 2, total number of events: 0
  Asthenia, Grade 3/4, patients: 0 n (%)
  Asthenia, Grade 3/4, total number of events: 0
  Blood and lymphatic system disorders, Grade 1, patients: 0 n (%)
  Blood and lymphatic system disorders, Grade 1, total number of events: 0
  Blood and lymphatic system disorders, Grade 2, patients: 0 n (%)
  Blood and lymphatic system disorders, Grade 2, total number of events: 0
  Blood and lymphatic system disorders, Grade 3/4, patients: 1 (12.5) n (%)
  Blood and lymphatic system disorders, Grade 3/4, total number of events: 1
  Blood creatinine increased, Grade 1, patients: 1 (12.5) n (%)
  Blood creatinine increased, Grade 1, total number of events: 1
  Blood creatinine increased, Grade 2, patients: 0 n (%)
  Blood creatinine increased, Grade 2, total number of events: 0
  Blood creatinine increased, Grade 3/4, patients: 0 n (%)
  Blood creatinine increased, Grade 3/4, total number of events: 0
  Blood glucose increased, Grade 1, patients: 1 (12.5) n (%)
  Blood glucose increased, Grade 1, total number of events: 1
  Blood glucose increased, Grade 2, patients: 0 n (%)
  Blood glucose increased, Grade 2, total number of events: 0
  Blood glucose increased, Grade 3/4, patients: 0 n (%)
  Blood glucose increased, Grade 3/4, total number of events: 0
  Cellulitis, Grade 1, patients: 0 n (%)
  Cellulitis, Grade 1, total number of events: 0
  Cellulitis, Grade 2, patients: 1 (12.5) n (%)
  Cellulitis, Grade 2, total number of events: 1
  Cellulitis, Grade 3/4, patients: 0 n (%)
  Cellulitis, Grade 3/4, total number of events: 0
  Chest pain, Grade 1, patients: 1 (12.5) n (%)
  Chest pain, Grade 1, total number of events: 1
  Chest pain, Grade 2, patients: 0 n (%)
  Chest pain, Grade 2, total number of events: 0
  Chest pain, Grade 3/4, patients: 0 n (%)
  Chest pain, Grade 3/4, total number of events: 0
  Confusional state, Grade 1, patients: 2 (25.0) n (%)
  Confusional state, Grade 1, total number of events: 2
  Confusional state, Grade 2, patients: 0 n (%)
  Confusional state, Grade 2, total number of events: 0
  Confusional state, Grade 3/4, patients: 0 n (%)
  Confusional state, Grade 3/4, total number of events: 0
  Cough, Grade 1, patients: 1 (12.5) n (%)
  Cough, Grade 1, total number of events: 1
  Cough, Grade 2, patients: 0 n (%)
  Cough, Grade 2, total number of events: 0
  Cough, Grade 3/4, patients: 0 n (%)
  Cough, Grade 3/4, total number of events: 0
  Decreased appetite, Grade 1, patients: 0 n (%)
  Decreased appetite, Grade 1, total number of events: 0
  Decreased appetite, Grade 2, patients: 1 (12.5) n (%)
  Decreased appetite, Grade 2, total number of events: 1
  Decreased appetite, Grade 3/4, patients: 0 n (%)
  Decreased appetite, Grade 3/4, total number of events: 0
  Dehydration, Grade 1, patients: 0 n (%)
  Dehydration, Grade 1, total number of events: 0
  Dehydration, Grade 2, patients: 1 (12.5) n (%)
  Dehydration, Grade 2, total number of events: 1
  Dehydration, Grade 3/4, patients: 0 n (%)
  Dehydration, Grade 3/4, total number of events: 0
  Diarrhea, Grade 1, patients: 0 n (%)
  Diarrhea, Grade 1, total number of events: 0
  Diarrhea, Grade 2, patients: 1 (12.5) n (%)
  Diarrhea, Grade 2, total number of events: 1
  Diarrhea, Grade 3/4, patients: 0 n (%)
  Diarrhea, Grade 3/4, total number of events: 0
  Disease progression, Grade 1, patients: 0 n (%)
  Disease progression, Grade 1, total number of events: 0
  Disease progression, Grade 2, patients: 0 n (%)
  Disease progression, Grade 2, total number of events: 0
  Disease progression, Grade 3/4, patients: 1 (12.5) n (%)
  Disease progression, Grade 3/4, total number of events: 1
  Dry skin, Grade 1, patients: 1 (12.5) n (%)
  Dry skin, Grade 1, total number of events: 1
  Dry skin, Grade 2, patients: 0 n (%)
  Dry skin, Grade 2, total number of events: 0
  Dry skin, Grade 3/4, patients: 0 n (%)
  Dry skin, Grade 3/4, total number of events: 0
  Dysarthria, Grade 1, patients: 1 (12.5) n (%)
  Dysarthria, Grade 1, total number of events: 1
  Dysarthria, Grade 2, patients: 0 n (%)
  Dysarthria, Grade 2, total number of events: 0
  Dysarthria, Grade 3/4, patients: 0 n (%)
  Dysarthria, Grade 3/4, total number of events: 0
  Ear and labyrinth disorders, Grade 1, patients: 2 (25.0) n (%)
  Ear and labyrinth disorders, Grade 1, total number of events: 2
  Ear and labyrinth disorders, Grade 2, patients: 0 n (%)
  Ear and labyrinth disorders, Grade 2, total number of events: 0
  Ear and labyrinth disorders, Grade 3/4, patients: 0 n (%)
  Ear and labyrinth disorders, Grade 3/4, total number of events: 0
  Ear pain, Grade 1, patients: 1 (12.5) n (%)
  Ear pain, Grade 1, total number of events: 1
  Ear pain, Grade 2, patients: 0 n (%)
  Ear pain, Grade 2, total number of events: 0
  Ear pain, Grade 3/4, patients: 0 n (%)
  Ear pain, Grade 3/4, total number of events: 0
  Eye disorder, Grade 1, patients: 1 (12.5) n (%)
  Eye disorder, Grade 1, total number of events: 1
  Eye disorder, Grade 2, patients: 0 n (%)
  Eye disorder, Grade 2, total number of events: 0
  Eye disorder, Grade 3/4, patients: 0 n (%)
  Eye disorder, Grade 3/4, total number of events: 0
  Eye disorders, Grade 1, patients: 1 (12.5) n (%)
  Eye disorders, Grade 1, total number of events: 1
  Eye disorders, Grade 2, patients: 0 n (%)
  Eye disorders, Grade 2, total number of events: 0
  Eye disorders, Grade 3/4, patients: 0 n (%)
  Eye disorders, Grade 3/4, total number of events: 0
  Fatigue, Grade 1, patients: 2 (25.0) n (%)
  Fatigue, Grade 1, total number of events: 2
  Fatigue, Grade 2, patients: 1 (12.5) n (%)
  Fatigue, Grade 2, total number of events: 1
  Fatigue, Grade 3/4, patients: 0 n (%)
  Fatigue, Grade 3/4, total number of events: 0
  Gait disturbance, Grade 1, patients: 1 (12.5) n (%)
  Gait disturbance, Grade 1, total number of events: 1
  Gait disturbance, Grade 2, patients: 0 n (%)
  Gait disturbance, Grade 2, total number of events: 0
  Gait disturbance, Grade 3/4, patients: 0 n (%)
  Gait disturbance, Grade 3/4, total number of events: 0
  Gastroesophageal reflux disease, Grade 1, patients: 1 (12.5) n (%)
  Gastroesophageal reflux disease, Grade 1, total number of events: 1
  Gastroesophageal reflux disease, Grade 2, patients: 0 n (%)
  Gastroesophageal reflux disease, Grade 2, total number of events: 0
  Gastroesophageal reflux disease, Grade 3/4, patients: 0 n (%)
  Gastroesophageal reflux disease, Grade 3/4, total number of events: 0
  Gastrointestinal disorders, Grade 1, patients: 2 (25.0) n (%)
  Gastrointestinal disorders, Grade 1, total number of events: 2
  Gastrointestinal disorders, Grade 2, patients: 3 (37.5) n (%)
  Gastrointestinal disorders, Grade 2, total number of events: 5
  Gastrointestinal disorders, Grade 3/4, patients: 0 n (%)
  Gastrointestinal disorders, Grade 3/4, total number of events: 0
  General disorders and administration site conditions, Grade 1, patients: 5 (62.5) n (%)
